Experiments:
[1] = Solubility by visual inspection; type: physicochemical; conditions: 10 mM PBS, molar equivalent of 250 mg/mL
[2] = system: naive mice; test: Barnes maze, spatial learning and memory; type: in vivo, mouse
[3] = molecular target: recombinant full length PICK1 (Rattus norvegicus, UniProt Q9EP80); test: SEC of recombinant PICK1 incubated with mPD5; type: binding; conditions: PICK1 40 µM + mPD5 10 µM (4:1), Superdex200 Increase 10/300; PICK1 alone 10.9 mL
recombinant full length PICK1, sequence (Q9EP80 whole entry): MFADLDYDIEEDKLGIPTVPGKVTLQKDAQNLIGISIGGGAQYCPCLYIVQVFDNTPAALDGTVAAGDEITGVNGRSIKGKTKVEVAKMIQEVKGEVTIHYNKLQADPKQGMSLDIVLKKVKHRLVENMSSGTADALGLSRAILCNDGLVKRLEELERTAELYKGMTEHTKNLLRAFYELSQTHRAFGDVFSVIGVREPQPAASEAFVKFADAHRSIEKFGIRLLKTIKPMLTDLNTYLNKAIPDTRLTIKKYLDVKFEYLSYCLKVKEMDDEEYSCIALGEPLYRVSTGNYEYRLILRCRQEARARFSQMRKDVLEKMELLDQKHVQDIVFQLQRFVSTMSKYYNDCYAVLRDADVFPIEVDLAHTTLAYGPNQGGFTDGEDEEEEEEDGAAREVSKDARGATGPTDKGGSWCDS

## CCCCCCCCCCCCCC(=O)N(CCOCCOCCC(=O)N[C@@H](Cc1c[nH]cn1)C(=O)N[C@@H](Cc1c[nH]c2ccccc12)C(=O)N[C@@H](CC(C)C)C(=O)N[C@@H](CCCCN)C(=O)N[C@H](C(=O)O)C(C)C)CCOCCOCCC(=O)N[C@@H](Cc1c[nH]cn1)C(=O)N[C@@H](Cc1c[nH]c2ccccc12)C(=O)N[C@@H](CC(C)C)C(=O)N[C@@H](CCCCN)C(=O)N[C@H](C(=O)O)C(C)C [mPD5, myristoyl-NPEG4-(HWLKV)2]
[1]
  solubility in PBS: ≥ 130 mM
[2]; s.c. 10 µmol/kg 60 min before maze
  total distance moved, probe test day five: no difference
[2]; s.c. 10 µmol/kg, probe test day nine
  total distance moved, following reversal learning: no difference was observed
[3]
  peak elution volume of PICK1 in presence of mPD5: two peaks at 8 mL and 9 mL

— publication doi:10.1101/2023.03.03.530471v2 (bioRxiv, 2023)
